Measured values taken from PMC9962452, “Modified Linear Peptides Effectively Silence STAT-3 in Breast Cancer and Ovarian Cancer Cell Lines” (Pharmaceutics, 2023).

How the values were obtained:
[1] = tested on: scrambled siRNA; experiment: Gel retardation / gel shifting assay, binding of peptides to siRNA; details: 1% agarose, ethidium bromide, N/P 0 to 60, 30 min room temperature, bands quantified with Image Lab, value is an N/P ratio
Procedure: In addition to the SYBR green dye exclusion assay described above, the binding affinity of the peptides to siRNA was also determined using the gel retardation/gel shifting assay. Briefly, the MLPs-siRNA complexes were prepared at different N to P ratios ranging from 0 to 60. The N/P ratio of zero represents free siRNA. The tubes containing complexes were incubated at room temperature for 30 min for complete complex formation. After this incubation time, the complexes were mixed with gel-loading dye. Each of the samples was loaded into the wells of 1% agarose gel with (1 μg/mL) ethidium bromide, and […] and 70 Volts were used to run the gel for 20 min. After the run, the gels were visualized under a Bio-Rad imager. The intensity of the bands was quantified by Image Lab software.
To support the data obtained by the SYBR green dye exclusion assay, the binding affinity of the MLPs with siRNA was also determined by the gel retardation assay (Figure 2). For this purpose, the MLPs-siRNA complexes were made in microtubes using purified normal saline at different N to P ratios ranging from 0 to 60. The N to P ratio of 0 represents siRNA only, with no peptide. The solutions in microtubes were allowed to stay at room temperature for 30 min to confer complete complex formation via electrostatic interactions between the MLPs and siRNA. […]

[2] = tested on: scrambled siRNA; experiment: SYBR green dye exclusion assay, binding of peptides to siRNA; details: scrambled siRNA in normal saline, N/P 0.05 to 40, 30 min room temperature, triplicates, sigmoidal model, value is an N/P ratio
Procedure: As previously reported, the binding affinity of selected peptides to siRNA was investigated using the SYBR green exclusion assay. The MLPs and scrambled siRNA were mixed in normal saline (in triplicates) with different N/P ratios ranging from 0.05 to 40. The mixture was incubated at room temperature for 30 min to ensure complete complexation of peptides and siRNA. After the incubation time, the complexes were transferred to a black 96-well plate. SYBR green dye solution for this assay was made by diluting 1 part of SYBR green dye with 10,000 parts of purified water. Then, 200 µL of the freshly made SYBR green dye dilution was added to each siRNA complex in the black 96-well plate. The plate was covered with aluminum foil before reading in a micro-plate reader that detected the fluorescent signal (485 nm excitation and 527 nm emission). […] The percentage of the siRNA complexed with the peptide was determined using the following equation: % siRNA bond to peptide=100−Fluorescence signal for complexed siRNA /Fluorescence signal for free siRNA×100 % siRNA bound to the peptide was plotted against a range of nitrogen to phosphate (N/P) ratios used in the experiment, and BR50 (the N/P ratio of the complex required to bind 50% of siRNA) was determined using a sigmoidal model. […]

[3] = tested on: MDA-MB-231 cells; experiment: Confocal microscopy of siRNA internalization; format: cell-based; details: N/P ratio 40, 24 h, Alexa Fluor 488-labeled siRNA, comparable to Lipofectamine 2000
Procedure: In order to visualize and locate the internalized siRNA, samples for confocal microscopy were prepared using MDA-MB-231 cells, adopting the protocol described previously by our lab. Briefly, sterile 6-well plates were used, and sterile coverslips were placed at the bottom of each well. MDA-MB-231 cells suspended in 2 mL of media were seeded in each well, and the plates were incubated in an incubator at standard growth conditions. After incubation, the cells were exposed to MLPs-fluorescent-labeled siRNA complexes at a N/P ratio of 40 using the same method described above for the FACS assay. The treated cells were again incubated for 24 h to allow for the internalization of siRNA. After overnight incubation, the media was drained from each well, and the cells were rigorously washed with HBSS three times, followed by fixation with 3.7% formaldehyde in the HBSS solution. Following fixation, the cells were treated with Texas Red for 1 h at room temperature to stain the cell membrane. After 1 h of staining with Texas Red, the cells were stained with DAPI overnight at room temperature in a dark environment to stain the nuclei. Following successful nuclei staining, the coverslips containing fixed stained cells were transferred to slides for viewing under a high-definition confocal microscope (Nikon A1 R). […]

[4] = tested on: STAT3 in MDA-MB-231 cells; experiment: Western blot of STAT3 protein after STAT3 siRNA delivery, MDA-MB-231; format: cell-based; details: n = 3
Procedure: The Western blot assay was used to evaluate the expression of STAT-3 protein in MDA-MB-231 cells using the protocol adopted from our previous study. Briefly, the cells were grown in T25 flasks and treated with MLP-siRNA complexes at N/P ratios of 20 and 40 for 48 h. Following treatment, the cells were harvested as pellets in microtubes and were lysed using RIPA lysis buffer supplanted with a protease inhibitor. The lysate was centrifuged for 15 min at 12,000 rpm at 4 °C to allow the separation of all cell proteins. The supernatant containing all cell proteins was separated in pre-cooled microtubes and the protein was quantified using the standard […].
Following the quantification of protein, the samples representing 15 µg of protein were mixed with gel loading dye and loaded in the wells of pre-formed gels and the electrophoresis was carried out at 200 V for 40 min. After the complete run, the gels were transferred to the Western blotting membrane using the Trans-Blot® machine. After successfully transferring gels onto the membrane, the membrane was blocked in 5% Bovine Serum Albumin in TBS-T buffer consisting of 1X tris-buffered saline and 0.1% Tween 20. […] Finally, the membrane was visualized under the Bio-Rad Imager, and the bands were quantified using Image Lab software. […]

- BC50 (from quantified gel bands) [1]: 0.9001
- BC50 ± SD (N/P ratio required for 50% binding of siRNA) [2]: 0.963 ± 0.34
Substance: AcNH-K(oleyl)-βA-βA-W4-βA-βA-R4-CONH2 [MLP4, oleic acid conjugated peptide, oleyl chain on the Lys side chain]
- Internalization of siRNA seen by confocal microscopy [3]: significant internalization of siRNA in the cytosol
- Downregulation of STAT3 protein ([4]; N/P ratio 20, 48 h): > 90%
- Downregulation of STAT3 protein ([4]; N/P ratio 40, 48 h, GAPDH housekeeping): > 90%
